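Exposure lasted 48 hours, with cells grown in 96-well plates and compounds tested at five concentrations. GI50 = concentration required for 50% inhibition of growth.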 Active and inactive are the calls of the source. Cut-off read from the data, not from the text of the source: active = GI50 up to about 1.1 µM and inactive = higher.
Assays:
Assay in all cases: DTP human tumour cell line panel, 48 h
[1] = tested on: SK-MEL-28
[2] = tested on: OVCAR-5
[3] = tested on: SK-MEL-5
[4] = tested on: M14
[5] = tested on: DU-145
[6] = tested on: ACHN
[7] = tested on: HL-60
[8] = tested on: RXF 393
[9] = tested on: MDA-MB-231
[10] = tested on: MCF7
[11] = tested on: A498
[12] = tested on: 786-0
[13] = tested on: HCT-116
[14] = tested on: HOP-92
[15] = tested on: SK-OV-3
[16] = tested on: SK-MEL-2
[17] = tested on: IGROV-1
[18] = tested on: OVCAR-4
[19] = tested on: SW-620
[20] = tested on: MDA-MB-435
[21] = tested on: T47D
[22] = tested on: BT-549
[23] = tested on: NCI/ADR-RES
[24] = tested on: K562
[25] = tested on: UO-31
[26] = tested on: SNB-75
[27] = tested on: A549
[28] = tested on: SN12C
[29] = tested on: HT-29
[30] = tested on: UACC-257
[31] = tested on: NCI-H226
[32] = tested on: U-251
[33] = tested on: HCC 2998
[34] = tested on: LOX IMVI
[35] = tested on: NCI-H460
[36] = tested on: SNB-19
[37] = tested on: OVCAR-3
[38] = tested on: SF-539
[39] = tested on: Hs-578T
[40] = tested on: COLO 205
[41] = tested on: UACC-62
[42] = tested on: TK-10
[43] = tested on: OVCAR-8
[44] = tested on: HCT-15
[45] = tested on: Malme-3M
[46] = tested on: NCI-H23
[47] = tested on: SF-268
[48] = tested on: RPMI-8226
[49] = tested on: HOP-62
[50] = tested on: PC-3
[51] = tested on: CCRF-CEM
[52] = tested on: MDA-N
[53] = tested on: KM12
[54] = tested on: CAKI-1
[55] = tested on: EKVX
[56] = tested on: NCI-H522
[57] = tested on: MOLT-4
[58] = tested on: SF-295

## CC(SC(=S)N1CCCCC1)C(=O)Nc1nnc(-c2ccc(Cl)cc2)o1 (stereo not given)
[1]
  GI50: 63.7 µM (inactive)
[2]
  GI50: 51.8 µM (inactive)
[3]
  GI50: 32.1 µM (inactive)
[4]
  GI50: 20.1 µM (inactive)
[5]
  GI50: 32.1 µM (inactive)
[6]
  GI50: 30.5 µM (inactive)
[7]
  GI50: 0.575 µM (active)
[8]
  GI50: 31.6 µM (inactive)
[9]
  GI50: 26.7 µM (inactive)
[10]
  GI50: 25.8 µM (inactive)
[11]
  GI50: 22.9 µM (inactive)
[12]
  GI50: 16.9 µM (inactive)
[13]
  GI50: 17.7 µM (inactive)
[14]
  GI50: 45.8 µM (inactive)
[15]
  GI50: 21.5 µM (inactive)
[16]
  GI50: 21.7 µM (inactive)
[17]
  GI50: 32 µM (inactive)
[18]
  GI50: 27.4 µM (inactive)
[19]
  GI50: 36.2 µM (inactive)
[20]
  GI50: 34.1 µM (inactive)
[21]
  GI50: 36.8 µM (inactive)
[22]
  GI50: 51.2 µM (inactive)
[23]
  GI50: 17.5 µM (inactive)
[24]
  GI50: 41.4 µM (inactive)
[25]
  GI50: 17.8 µM (inactive)
[26]
  GI50: 20.1 µM (inactive)
[27]
  GI50: 30.3 µM (inactive)
[28]
  GI50: 17.5 µM (inactive)
[29]
  GI50: 23 µM (inactive)
[30]
  GI50: 37.5 µM (inactive)
[31]
  GI50: 38.5 µM (inactive)
[32]
  GI50: 24.7 µM (inactive)
[33]
  GI50: 34.8 µM (inactive)
[34]
  GI50: 23.6 µM (inactive)
[35]
  GI50: 27.2 µM (inactive)
[36]
  GI50: 31.4 µM (inactive)
[37]
  GI50: 11 µM (inactive)
[38]
  GI50: 58.7 µM (inactive)
[39]
  GI50: 40.6 µM (inactive)
[40]
  GI50: 34.9 µM (inactive)
[41]
  GI50: 25.2 µM (inactive)
[42]
  GI50: 50.6 µM (inactive)
[43]
  GI50: 38.5 µM (inactive)
[44]
  GI50: 13 µM
[45]
  GI50: 19.1 µM (inactive)
[46]
  GI50: 42.1 µM (inactive)
[47]
  GI50: 17.5 µM (inactive)
[48]
  GI50: 20.2 µM (inactive)
[49]
  GI50: 11.8 µM (inactive)
[50]
  GI50: 24.2 µM (inactive)

## C[C@]12CC[C@@H]3c4cc(OCC(F)(F)F)c(O)cc4/C(=N/O)C[C@H]3[C@@H]1CC[C@@H]2O
[2]
  GI50: 12.9 µM (inactive)
[3]
  GI50: 0.0232 µM (active)
[51]
  GI50: < 0.0163 µM (active)
[9]
  GI50: 0.0592 µM (active)
[10]
  GI50: 0.0247 µM (active)
[11]
  GI50: 0.0977 µM (active)
[14]
  GI50: 0.33 µM (active)
[15]
  GI50: 0.0384 µM (active)
[16]
  GI50: 0.0351 µM (active)
[17]
  GI50: 0.147 µM (active)
[18]
  GI50: 7 µM (inactive)
[20]
  GI50: < 0.0126 µM (active)
[22]
  GI50: < 0.01 µM (active)
[26]
  GI50: < 0.01 µM (active)
[27]
  GI50: 0.0372 µM (active)
[28]
  GI50: 0.0873 µM (active)
[29]
  GI50: 3.62 µM (inactive)
[52]
  GI50: 0.011 µM (active)
[30]
  GI50: 0.0509 µM (active)
[31]
  GI50: 0.27 µM (active)
[32]
  GI50: 0.026 µM (active)
[33]
  GI50: 2.82 µM (inactive)
[36]
  GI50: 0.025 µM (active)
[53]
  GI50: 0.537 µM (active)
[37]
  GI50: 0.0156 µM (active)
[38]
  GI50: 0.0188 µM (active)
[39]
  GI50: 0.0215 µM (active)
[40]
  GI50: 16 µM (inactive)
[42]
  GI50: 23.7 µM (inactive)
[54]
  GI50: 0.0468 µM (active)
[45]
  GI50: 0.0299 µM (active)
[55]
  GI50: 0.23 µM (active)
[47]
  GI50: 0.0484 µM (active)
[50]
  GI50: 2.56 µM (inactive)

## COC(=O)C1CCC(=S)N1C(C)=O (stereo not given)
[1]
  GI50: > 100 µM (inactive)
[2]
  GI50: > 100 µM (inactive)
[3]
  GI50: > 100 µM (inactive)
[56]
  GI50: > 100 µM (inactive)
[4]
  GI50: > 100 µM (inactive)
[5]
  GI50: > 100 µM (inactive)
[6]
  GI50: > 100 µM (inactive)
[8]
  GI50: > 100 µM (inactive)
[9]
  GI50: > 100 µM (inactive)
[10]
  GI50: > 100 µM (inactive)
[11]
  GI50: > 100 µM (inactive)
[12]
  GI50: > 100 µM (inactive)
[13]
  GI50: > 100 µM (inactive)
[14]
  GI50: > 100 µM (inactive)
[15]
  GI50: > 100 µM (inactive)
[16]
  GI50: > 100 µM (inactive)
[17]
  GI50: > 100 µM (inactive)
[18]
  GI50: > 100 µM (inactive)
[19]
  GI50: > 100 µM (inactive)
[20]
  GI50: > 100 µM (inactive)
[22]
  GI50: > 100 µM (inactive)
[57]
  GI50: > 100 µM (inactive)
[23]
  GI50: > 100 µM (inactive)
[24]
  GI50: > 100 µM (inactive)
[25]
  GI50: > 100 µM (inactive)
[58]
  GI50: > 100 µM (inactive)
[26]
  GI50: > 100 µM (inactive)
[27]
  GI50: > 100 µM (inactive)
[29]
  GI50: > 100 µM (inactive)
[52]
  GI50: > 100 µM (inactive)
[30]
  GI50: > 100 µM (inactive)
[32]
  GI50: > 100 µM (inactive)
[33]
  GI50: > 100 µM (inactive)
[35]
  GI50: > 100 µM (inactive)
[36]
  GI50: > 100 µM (inactive)
[53]
  GI50: > 100 µM (inactive)
[37]
  GI50: > 100 µM (inactive)
[39]
  GI50: > 100 µM (inactive)
[40]
  GI50: > 100 µM (inactive)
[41]
  GI50: > 100 µM (inactive)
[42]
  GI50: > 100 µM (inactive)
[43]
  GI50: > 100 µM (inactive)
[54]
  GI50: > 100 µM (inactive)
[44]
  GI50: > 100 µM
[45]
  GI50: > 100 µM (inactive)
[55]
  GI50: > 100 µM (inactive)
[46]
  GI50: > 100 µM (inactive)
[47]
  GI50: > 100 µM (inactive)
[48]
  GI50: > 100 µM (inactive)
[49]
  GI50: > 100 µM (inactive)
[50]
  GI50: > 100 µM (inactive)
